pIC50: −log10 of the molar value. Read-outs that look alike come from different tables or passages of the source.
Tests used:
[1] = tested on: Onchocerca ochengi adult male worms; assay: O. ochengi adult male worm motility assay, primary and secondary screens; assay type: cell-based; details: for inhibition at 30 µM: Onchocerca ochengi, 24 h, read-out: % Adult Male Worm Motility Reduction after 24 h
[2] = tested on: Onchocerca ochengi adult female worms; assay: O. ochengi adult female worm viability, MTT/formazan assay; assay type: cell-based; details: for killing at 30 µM: read-out: % Adult Female Worm Death after 120 h; for activity on adult female worms (in words): biochemical assessment at 30 μM; for IC100 Adult Female Worm: secondary screen
Description: (§1) The isolation of O. ochengi adult worms was performed as described previously by Cho-Ngwa et al.. Briefly, fresh pieces of umbilical cattle skin with palpable nodules bought from butchery in Douala, Cameroon were washed, drained and sterilized with 70% ethanol. The worms were carefully scraped out of the nodules as single masses and temporarily submerged in 1 mL complete culture medium, CCM [RPMI-1640 (Sigma-Aldrich, St. Louis, MO, USA) supplemented with 25 mM HEPES, 2 g/L sodium bicarbonate, 2 mM L-glutamine, 5% newborn calf serum (SIGMA, St. Louis, MO, USA), 150 units/mL penicillin, 150 µg/mL streptomycin and 0.5 µg/mL amphotericin B (SIGMA, St. Louis, MO, USA), pH 7.4)] using 24-well plates. The adult worms were incubated in the culture medium overnight in a CO2 incubator, during which period the male worms migrated out of the nodular masses. Only wells containing viable worms received treatment with test compounds. Damaged worms and worms from putrefied nodules were discarded. The viability of worms retained for the assay was ascertained by visual and microscopic examination of adult male worm motility using an inverted microscope.
(§2) The compounds were tested on […] at a single concentration of 30 μM, in duplicate wells. […] The female worms were removed and incubated in 500 μL of 0.5 μg/mL MTT for the last 30 min of incubation. Inhibition of formazan formation from MTT directly correlates with worm death. The worms were blotted on absorbent paper and observed visually for blue coloration against a white background. […] Auranofin at 10 μM, which had previously shown activity against O. ochengi adult worms and Mf, was used as a positive control, while negative control wells received the diluent, 2% DMSO only, previously shown to have no effect on parasite viability. The solvent DMSO (2%) was used as a negative control. […] Furthermore, the toxicity of DMSO decreases with dilution.
(§3) The pure compounds with 100% activity at primary screens were re-tested as described under primary screens, in order to determine the IC50 values. The IC50 assays were performed in triplicate and each experiment repeated for confirmation. The means of all activities at a concentration were calculated and used in the statistical analyses. GraphPadPrism version 6.0 (GraphPad Software, San Diego, CA, USA) was used to generate dose response curves from which the IC50 values were obtained.

[3] = tested on: Monkey kidney epithelial cells (LLC-MK2); assay: Cytotoxicity on monkey kidney epithelial cells, microscopic; assay type: cell-based; details: read-out: IC50 Monkey Kidney Cells (LLC-MK2)
Description: Monkey kidney epithelial cells (LLC-MK2) (ATCC, Manassas, VA, USA) were cultured at 37 °C in humidified air with 5% CO2 in a Hera Cell-150 incubator (Thermo Electron, Karlsruhe, Germany) until the cell layer was almost confluent. The cell suspension was dispensed into 96-well micro titer plates (200 µL/well) and kept in the incubator for 3–5 days for cells to grow and become fully confluent. These cells served as feeder layers for the Mf assays and were also used for cytotoxicity studies.
Cytotoxicity of the pure compounds with anti-onchocercal activities was assessed on LLC-MK2 cells, microscopically, on day 5 of the Mf assay. Living cells were flattened out and attached to the culture plate, while dead cells were rounded up and detached from the plate. The IC50 values for these cells were estimated from the morphological deformation data.

[4] = tested on: Onchocerca ochengi microfilariae; assay: O. ochengi microfilariae (Mf) motility assay, primary and secondary screens; assay type: cell-based; details: for inhibition at 30 µM: 24 h, read-out: % Mf Motility Reduction after 24 h; for pIC50: read-out: IC50 Mf; for effect on motility of microfilariae (in words): dose-dependent manner; for SI Mf: selectivity index = IC50 on LLC-MK2 cells (CC50) / IC50 on parasites
Description: Briefly, Mf were prepared using the method described by Cho-Ngwa et al., with slight modifications. A few skin snips were obtained from different locations and incubated in aliquots of culture medium for 15 min, after which the emergent Mf were qualified and quantified using an inverted microscope and standard atlases. The leftover pieces of skin were shaved, rinsed, sterilized with 70% ethanol and sliced into thin slivers. The slivers were incubated in CCM for 2 h, and the emergent highly motile O. ochengi Mf were concentrated by centrifugation. The Mf were transferred to 96-well micro titer plates (15 Mf/100 μL/well) containing a fully confluent LLC-MK2 cell layer in 100 μL of CCM. This was monitored for viability and sterility for 24 h before addition of test and control compounds.
The biological assays were conducted in duplicate in the 96-well microtiter plates. The Mf were incubated with the drug for 120 h in a total of 200 μL of medium. Mf viability was assessed by microscopy once every day and motility inhibition scores were recorded. […] Motility inhibition correlates to drug activity. The positive control drug was amorcazine at 30 μM, and negative control was the diluent (DMSO).
Compounds showing 100% activity in the primary screens were re-tested as described under primary screens to determine the IC50 values. All assays were repeated at least once. The selectivity index (SI) of each extract was calculated as the ratio of the IC50 of the extract on the mammalian cell (termed CC50) to the IC50 on parasites.

[5] = tested on: Onchocerca ochengi adult male worms; assay: O. ochengi adult male worm motility assay, primary and secondary screens; assay type: cell-based; details: for pIC50: read-out: IC50 Adult Male Worm; for effect on motility of adult male worms (in words): dose-dependent manner; for SI Adult Male Worm: selectivity index = IC50 on LLC-MK2 cells (CC50) / IC50 on parasites
Description: as §1, §2
Adult male worm motility was evaluated with the aid of an inverted microscope.
as §3

Onchocerca ochengi = tested on: Onchocerca ochengi; design: method as in earlier work; details: from stem bark of V. africana; cited from earlier work
[6] = Primates, LLC-MK2, 120 h, cytotoxicity, day 5, estimated from morphological deformation
[7] = Onchocerca ochengi, secondary screen, motility
[8] = Onchocerca ochengi, primary screen, 30 μM

| Compound | inhibition at 30 µM [1] [%] | killing at 30 µM ([2]; Onchocerca ochengi, 120 h) [%] | activity on adult female worms (in words) [2] | IC100 Adult Female Worm [2] [µM] | inhibition at 30 µM ([4]; Onchocerca ochengi) [%] | effect on motility of microfilariae (in words) [4] | IC100 Mf ([4]; secondary screen) [µM] | SI Mf [4] | pIC50 ([5]; Onchocerca ochengi) | effect on motility of adult male worms (in words) [5] | IC100 Adult Male Worm ([5]; secondary screen) [µM] | SI Adult Male Worm [5] | pIC50 [3, 6] | pIC50 [4, 7] | other results |
| --- | --- | --- | --- | --- | --- | --- | --- | --- | --- | --- | --- | --- | --- | --- | --- |
| C/C=C1/CN(C)C2Cc3c([nH]c4ccccc34)[C@@H](c3cc4[nH]c5c(c4cc3OC)CCN3CC4CC([C@H](C)O)C3[C@@]5(C(=O)OC)C4)CC1C2C(=O)OC (stereo partly shown) [Compound 8, voacorine] | 100 | 50 | moderately active | >30 | 100 | inhibit the motility | 4.98 | 12.04 | 5.46 | inhibit the motility | 6.90 | 8.69 |  |  | pIC50 ([3]; Primates, LLC-MK2, 120 h): ≤ 4.52; pIC50 ([4]; Onchocerca ochengi): 5.60 |
| CN1CCN(C(=S)Nc2ccc(Nc3ccc([N+](=O)[O-])cc3)cc2)CC1 [amocarzine, reference compound] |  |  |  |  |  |  |  |  |  |  |  |  |  |  | inhibition at 10 µM ([2]; Onchocerca ochengi, 120 h, read-out: inhibition of formazan formation in adult female worms): 100% |
| C/C=C1\CN(C)C2Cc3c([nH]c4ccccc34)[C@@H](c3cc4[nH]c5c(c4cc3OC)CCN3CC4C[C@H](CC)C3[C@@]5(C(=O)OC)C4)CC1C2C(=O)OC (stereo partly shown) [Compound 1, voacamine A] | 100 | 65 | moderately active | >30 | 100 | inhibit the motility | 7.38 | 8.13 | 5.35 | inhibit the motility | 8.90 | 6.74 | ≤ 4.52 | 5.43 |  |
| Ivermectin [reference compound] |  |  |  |  |  |  |  |  |  |  |  |  |  |  | % Mf Motility Reduction after 24 h ([4]; positive control, 10 μg/mL): 100% |
| CC[C@H]1C[C@@H]2C[C@H]3c4[nH]c5cc(OC)ccc5c4CC[N@@](C2)[C@@H]13 [Compound 5, tabernanthine] | 0 | 0 | almost inactive |  | 0 | almost inactive |  |  |  | almost inactive |  |  |  |  |  |
| voacamine [Compound 7] |  |  | moderately active | >30 |  | inhibit the motility | 10 |  |  | inhibit the motility | 10 |  |  |  | % Adult Male Worm Motility Reduction after 24 h ([1]; primary screen, 30 μM): 100%; % Adult Female Worm Death after 120 h ([2]; primary screen, 30 μM, corresponds to % inhibition of formazan formation): 65%; pIC50 ([3]; cytotoxicity, day 5, estimated from morphological deformation): ≤ 4.52; % Mf Motility Reduction after 24 h ([4]; primary screen, 30 μM): 100%; pIC50 ([4]; secondary screen, motility): 5.60; pIC50 ([5]; secondary screen, motility): 5.46; activity against Onchocerca ochengi (in words) (Onchocerca ochengi): showing activity |
| CC[C@H]1CC2CN3CCc4c([nH]c5ccc(OC)cc45)[C@](C(=O)OC)(C2)[C@H]13 (stereo in doubt) [Compound 2, voacangine] | 100 | 100 | moderately active | >30 |  | inhibit the motility | 10 | 5.46 | 5.04 | inhibit the motility | 20 | 3.30 | ≤ 4.52 | 5.26 | inhibition at 30 µM [4, 8]: 100%; activity against Onchocerca ochengi (in words) (Onchocerca ochengi): showing activity |
| COC(=O)[C@@]12C[C@@H]3C[C@H]([C@H](C)O)[C@@H]1N(CCc1c2[nH]c2ccc(OC)cc12)C3 [Compound 3, voacristine] | 100 | 50 | moderately active | >30 |  | inhibit the motility | 8.68 | 6.91 | 5.09 | inhibit the motility | 16.14 | 3.71 | ≤ 4.52 | 5.36 | inhibition at 30 µM [4, 8]: 100% |
| CC(=O)OC[C@H]1O[C@@H]([S-])[C@H](OC(C)=O)[C@@H](OC(C)=O)[C@@H]1OC(C)=O.CCP(CC)CC.[Au+] [Auranofin, reference compound] |  |  |  |  |  |  |  |  |  |  |  |  |  |  | % Adult Male Worm Motility Reduction after 24 h ([1]; positive control, 10 μM): 100%; % Adult Female Worm Death after 120 h ([2]; positive control, 10 μM, % inhibition of formazan formation): 100%; % Mf Motility Reduction after 24 h ([4]; positive control, 10 μM): 100% |
| COc1ccc2[nH]c3c(c2c1)CCN1CC2CC3C1C([C@H](C)O)C2 (stereo partly shown) [Compound 6, iboxygaine] | 100 | 50 | moderately active | >30 | 100 | inhibit the motility | 9.44 | 6.35 | 5.04 | inhibit the motility | 18.14 | 3.30 |  |  | pIC50 ([3]; Primates, LLC-MK2, 120 h): ≤ 4.52; pIC50 ([4]; Onchocerca ochengi): 5.33 |
| CC[C@H]1C[C@@H]2CN3CCc4c([nH]c5ccccc45)[C@](C(=O)OC)(C2)[C@H]13 [Compound 4, coronaridine] | 100 | 50 | moderately active | >30 |  | inhibit the motility | 8.42 | 7.13 | 5.06 | inhibit the motility | 17.36 | 3.45 | ≤ 4.52 | 5.38 | inhibition at 30 µM [4, 8]: 100% |

— article PMC7795662, “Alkaloids with Anti-Onchocercal Activity from Voacanga africana Stapf (Apocynaceae): Identification and Molecular Modeling” (Molecules, 2020)
